Assay [1] deals with human PRMT8 (Homo sapiens, UniProt Q9NR22). Put plainly: PRMT8 Biochemical Assay. Conditions: PRMT8 IC50 (uM), peptide substrate, 3H-SAM Flashplate assay.
Assay [2] has as its target T1, human PRMT1 (Homo sapiens, UniProt Q99873).
T1 construct: GST-tagged PRMT1; made in house; host or cells: High Five insect cells (baculovirus, pFastBac1)
Put plainly: PRMT1 Biochemical Assay. The settings on record: peptide substrate, 3H-SAM Flashplate assay; read-out: PRMT1 IC50. The source says: S-adenosylmethionine (SAM), S-adenosylhomocysteine (SAH), bicine, Tween20, dimethylsulfoxide (DMSO), bovine skin gelatin (BSG), and Tris(2-carboxyethyl)phosphine hydrochloride solution (TCEP) were purchased from Sigma-Aldrich at the highest level of purity possible. ^3H-SAM was purchase from American Radiolabeled Chemicals with a specific activity of 80 Ci/mmol. 384-well streptavidin Flashplates were purchased from PerkinElmer.
Recombinant baculovirus were generated according to Bac-to-Bac kit instructions (Life Technologies). […] Infections were carried out at 27° C. for 48 hours, harvested by centrifugation, and stored at −80° C. for purification.
GST-tagged PRMT1 was eluted with 50 mM Tris, 2 mM glutathione, pH 7.8, dialysed in buffer A and concentrated to 1 mg/mL.
General Procedure for PRMT1 Enzyme Assays on Peptide Substrates.
(§1) The assays were all performed in a buffer consisting of 20 mM Bicine (pH=7.6), 1 mM TCEP, 0.005% BSG, and 0.002% Tween 20, prepared on the day of use. […] DMSO (1 ul) was added to Columns 11, 12, 23, 24, rows A-H for the maximum signal control and 1 ul of SAH, a known product and inhibitor of PRMT1, was added to columns 11, 12, 23, 24, rows I-P for the minimum signal control. A cocktail (40 ul) containing the PRMT1 enzyme was added by Multidrop Combi (Thermo-Fisher). The compounds were allowed to incubate with PRMT1 for 30 min at room temperature, then a cocktail (10 ul) containing SAM and peptide was added to initiate the reaction (final volume=51 ul). […] The assays were stopped by the addition of non-radiolabeled SAM (10 ul) to a final concentration of 300 uM, which dilutes the ^3H-SAM to a level where its incorporation into the peptide substrate is no longer detectable. 50 ul of the reaction in the 384-well polypropylene plate was then transferred to a 384-well Flashplate and the biotinylated peptides were allowed to bind to the streptavidin surface for at least 1 hour before being washed once with 0.1% Tween20 in a Biotek ELx405 plate washer. The plates were then read in a PerkinElmer TopCount plate reader to measure the quantity of ^3H-labeled peptide bound to the Flashplate surface, measured as disintegrations per minute (dpm) or alternatively, referred to as counts per minute (cpm).
(§2) Where dpm=disintegrations per minute, cmpd=signal in assay well, and min and max are the respective minimum and maximum signal controls.
(§3) Where top and bottom are the normally allowed to float, but may be fixed at 100 or 0 respectively in a 3-parameter fit. The Hill Coefficient normally allowed to float but may also be fixed at 1 in a 3-parameter fit. Y is the % inhibition and X is the compound concentration.

In assay [3] the target is T2, human PRMT6 (Homo sapiens, UniProt Q96LA8).
T2 construct: Flag-PRMT6-His; made in house; host or cells: HEK 293F cells (BacMam baculovirus, pFastBacMam)
In words: PRMT6 Biochemical Assay. Conditions: peptide substrate, 3H-SAM Flashplate assay; read-out: PRMT6 IC50.
Excerpt: S-adenosylmethionine (SAM), S-adenosylhomocysteine (SAH), bicine, Tween20, dimethylsulfoxide (DMSO), bovine skin gelatin (BSG), sodium butyrate and Tris(2-carboxyethyl)phosphine hydrochloride solution (TCEP) were purchased from Sigma-Aldrich at the highest level of purity possible. ^3H-SAM was purchase from American Radiolabeled Chemicals with a specific activity of 80 Ci/mmol. 384-well streptavidin Flashplates were purchased from PerkinElmer.
Peptide representative of human histone H4 residues 36-50 was synthesized with an N-terminal linker-affinity tag motif and a C-terminal amide cap by 21st Century Biochemicals.
The amplified gene was subcloned into pFastBacMam (Viva Biotech).
Recombinant baculovirus were generated according to Bac-to-Bac kit instructions (Life Technologies). […] Infections were carried out at 37° C. for 48 hours, harvested by centrifugation, and stored at −80° C. for purification.
Column was washed with 20 mM imidazole in the same buffer and Flag-PRMT6-His was eluted with 150 mM imidazole. Pooled fractions were dialysed against buffer Ni-A and further purified by anti-flag M2 affinity chromatography. Flag-PRMT6-His was eluted with 200 ug/ml FLAG peptide in the same buffer. Pooled fractions were dialysed in 20 mM Tris, 150 mM NaCl, 10% glycerol and 5 mM β-mercaptoethanol, pH 7.8.
General Procedure for PRMT6 Enzyme Assays on Peptide Substrates.
as §1, with “PRMT6,” for “PRMT1,”, “PRMT6” for “PRMT1”, “400” for “300”
as §2, §3

The subject of assay [4] is mono-methyl arginine in RKO cells. Put plainly: RKO Methylation Assay, In Cell Western (ICW). It is filed as cell-based. The settings on record: 72 hours. The source says:
RKO adherent cells were purchased from ATCC (American Type Culture Collection), Manassas, Va., USA. DMEM/Glutamax medium, penicillin-streptomycin, heat inactivated fetal bovine serum, 0.05% trypsin and D-PBS were purchased from Life Technologies, Grand Island, N.Y., USA. Odyssey blocking buffer, 800CW goat anti-rabbit IgG (H+L) antibody, and Licor Odyssey infrared scanner were purchased from Licor Biosciences, Lincoln, Nebr., USA. Mono-methyl arginine antibody was purchased from Cell Signaling Technology, Danvers, Mass., USA. Methanol was purchased from VWR, Franklin, Mass., USA. 10% Tween 20 was purchased from KPL, Inc., Gaithersburg, Md., USA. DRAQ5 was purchased from Biostatus Limited, Leicestershire, UK.
RKO adherent cells were maintained in growth medium (DMEM/Glutamax medium supplemented with 10% v/v heat inactivated fetal bovine serum and 100 units/mL penicillin-streptomycin) and cultured at 37° C. under 5% CO2.
Cell treatment, In Cell Western (ICW) for detection of mono-methyl arginine and DNA content.
Compound (100 nL) from a 96-well source plate was added directly to 384 well cell plate. Plates were incubated at 37° C., 5% CO2 for 72 hours. After three days of incubation, plates were brought to room temperature outside of the incubator for ten minutes and blotted on paper towels to remove cell media. 50 μL of ice cold 100% methanol was added directly to each well and incubated for 30 min at room temperature. After 30 min, plates were transferred to a Biotek EL406 plate washer and washed 2 times with 100 μL per well of wash buffer (1×PBS). Next 60 μL per well of Odyssey blocking buffer (Odyssey Buffer with 0.1% Tween 20 (v/v)) were added to each plate and incubated 1 hour at room temperature. Blocking buffer was removed and 20 μL per well of primary antibody was added (mono-methyl arginine diluted 1:200 in Odyssey buffer with 0.1% Tween 20 (v/v)) and plates were incubated overnight (16 hours) at 4° C. Plates were washed 5 times with 100 μL per well of wash buffer. […] The plates were washed 5 times with 100 μL per well wash buffer then 2 times with 100 μL per well of water. Plates were allowed to dry at room temperature then imaged on the Licor Odyssey machine which measures integrated intensity at 700 nm and 800 nm wavelengths. Both 700 and 800 channels were scanned.
First, the ratio for each well was determined by:
Each plate included fourteen control wells of DMSO only treatment (minimum activation) as well as fourteen control wells for maximum activation treated with 20 μM of a reference compound. The average of the ratio values for each control type was calculated and used to determine the percent activation for each test well in the plate. Reference compound was serially diluted three-fold in DMSO for a total of nine test concentrations, beginning at 20 μM. Percent activation was determined and EC30 curves were generated using triplicate wells per concentration of compound.

T1 sequence (Q99873 with tags, fused parts or gaps): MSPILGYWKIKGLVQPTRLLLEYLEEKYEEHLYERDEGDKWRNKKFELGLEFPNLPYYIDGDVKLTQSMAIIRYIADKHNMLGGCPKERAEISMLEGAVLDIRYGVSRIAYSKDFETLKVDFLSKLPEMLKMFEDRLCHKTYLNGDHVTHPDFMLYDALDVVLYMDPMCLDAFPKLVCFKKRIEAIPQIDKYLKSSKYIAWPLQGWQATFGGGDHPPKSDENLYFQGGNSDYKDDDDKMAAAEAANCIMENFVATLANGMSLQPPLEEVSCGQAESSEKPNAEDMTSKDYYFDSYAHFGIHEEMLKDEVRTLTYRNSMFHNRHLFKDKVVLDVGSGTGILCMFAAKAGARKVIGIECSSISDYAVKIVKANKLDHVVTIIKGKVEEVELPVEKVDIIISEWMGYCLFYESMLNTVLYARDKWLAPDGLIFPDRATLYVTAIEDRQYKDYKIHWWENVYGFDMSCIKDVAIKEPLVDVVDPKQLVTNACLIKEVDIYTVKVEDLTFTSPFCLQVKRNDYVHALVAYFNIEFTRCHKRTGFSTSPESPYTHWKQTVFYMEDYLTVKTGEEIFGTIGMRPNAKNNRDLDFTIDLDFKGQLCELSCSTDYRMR
human PRMT8, sequence (Q9NR22 whole entry): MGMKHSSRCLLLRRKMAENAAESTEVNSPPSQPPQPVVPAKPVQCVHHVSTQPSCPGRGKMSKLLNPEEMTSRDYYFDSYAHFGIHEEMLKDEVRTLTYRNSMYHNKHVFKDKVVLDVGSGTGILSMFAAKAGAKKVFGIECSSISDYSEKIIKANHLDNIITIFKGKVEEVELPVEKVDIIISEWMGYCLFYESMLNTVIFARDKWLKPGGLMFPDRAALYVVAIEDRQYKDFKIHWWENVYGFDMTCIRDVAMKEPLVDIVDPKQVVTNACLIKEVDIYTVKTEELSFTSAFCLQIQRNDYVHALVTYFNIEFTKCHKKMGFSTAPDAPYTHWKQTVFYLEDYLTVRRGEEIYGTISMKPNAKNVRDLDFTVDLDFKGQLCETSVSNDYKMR
T2 sequence (Q96LA8 with tags, fused parts or gaps): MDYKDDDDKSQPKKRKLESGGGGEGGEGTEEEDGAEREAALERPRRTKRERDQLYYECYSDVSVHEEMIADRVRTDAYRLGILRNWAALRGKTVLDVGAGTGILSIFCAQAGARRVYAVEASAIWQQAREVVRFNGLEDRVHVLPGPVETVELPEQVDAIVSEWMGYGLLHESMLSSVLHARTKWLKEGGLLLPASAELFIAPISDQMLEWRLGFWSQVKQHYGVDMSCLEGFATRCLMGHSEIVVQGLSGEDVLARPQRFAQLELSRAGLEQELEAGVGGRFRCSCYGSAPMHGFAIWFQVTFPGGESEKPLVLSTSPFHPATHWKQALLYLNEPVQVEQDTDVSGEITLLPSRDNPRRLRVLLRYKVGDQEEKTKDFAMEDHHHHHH

With `CNCCN(C)Cc1c[nH]nc1-c1ccc(OC2CCC(OC)CC2)cc1` (stereo not shown) [Compound 86], the figures for the IC50 in assay [1], in assay [2] and in assay [3] were 0.0686 µM, 22.5 nM and 19.6 nM, respectively. In addition, the “ICW EC30” value in assay [4] amounted to 836 nM.
In the same order, the values of `CNCCN(C)Cc1c[nH]nc1-c1ccc(N(C)CCCOc2ccc(OC)cc2)cc1` [Compound 12] are 0.0264 µM, 5.25 nM, 14.6 nM and 449.8 nM.
The like results for `CNCCN(C)Cc1c[nH]nc1-c1ccc(OCCOc2cccc(C(C)C)c2)cc1` [Compound 62] were, in that order, 0.0363 µM, 12.9 nM, 4.31 nM and 1378 nM.
In the same order, the values of `CNCCN(C)Cc1c[nH]nc1-c1ccc(OC2CCC(OCCOC)CC2)cc1` (stereo not shown) [Compound 98] are 0.113 µM, 28.5 nM, 28.9 nM and 868.5 nM.
`CCCOCCOc1cc(-c2n[nH]cc2CN(C)CCNC)cc(C(F)(F)F)c1` [Compound 60]: the figures for the IC50 in assay [1], in assay [2] and in assay [3] were 0.0525 µM, 12.7 nM and 1200 nM, respectively. Besides, the “ICW EC30” value in assay [4] turned out to be 1263 nM.
Take `CNCCN(C)Cc1cnn(C)c1-c1ccc(OC2CCOCC2)cc1` [Compound 88]: the results for the half-maximal inhibitory concentration (IC50) in assay [1], in assay [2] and in assay [3] were 0.0267 µM, 23 nM and 23.5 nM, respectively. The “ICW EC30” value in assay [4] is 1236 nM.
As for `CNCCN(C)Cc1c[nH]nc1-c1ccc(OCCOc2cccnn2)cc1` [Compound 90], the IC50 in assay [1] is 0.117 µM; in assay [2] it was 24.2 nM; in assay [3], 19.9 nM. In assay [4], the “ICW EC30” value is 2491 nM.
Turning to `CNCCN(C)Cc1c[nH]nc1-c1ccc(OCCOc2ccc(OCC(C)C)cc2)cc1` [Compound 40], the results for the IC50 in assay [1], in assay [2] and in assay [3] were 0.0247 µM, 8.34 nM and 7.39 nM, respectively. Moreover, the “ICW EC30” value in assay [4] came to 505.1 nM.
The like results for `CNCCN(C)Cc1c[nH]nc1-c1ccc(OCCOc2ccccc2)cc1` [Compound 61] were, in that order, 0.0374 µM, 12.9 nM, 11.4 nM and 130 nM.
The like results for `CNCCN(C)Cc1c[nH]nc1-c1cc(F)c(OC2CCOCC2)c(C(F)(F)F)c1` [Compound 53] were, in that order, 0.0328 µM, 11 nM, 18.9 nM and 479 nM.
For `CNCCN(C)Cc1c[nH]nc1-c1ccc(N(C)CCCOc2ccc(OC)cc2)cc1` [Compound 10], the IC50 in assay [1] was 0.0124 µM; in assay [2] it was 5.21 nM; in assay [3], 8.25 nM. The “ICW EC30” value in assay [4] is 176.2 nM.
The like results for `CNCCN(C)Cc1ccnn1-c1ccc(COC)cc1` [Compound 44] were, in that order, 0.0235 µM, 9.25 nM, 56.4 nM and 130 nM.
Turning to `CNCCN(C)Cc1c[nH]nc1-c1ccc(OCCOc2ccc(OCCOC)cc2)cc1` [Compound 72], the IC50 in assay [1] was found to be 0.035 µM; in assay [2], 15.3 nM; in assay [3] it was 10.1 nM. Further, in assay [4], the “ICW EC30” value came to 163 nM.
Take `CNCCN(C)Cc1c[nH]nc1-c1ccc(N(CCCN2CCOCC2)CC(C)C)nc1` [Compound 69]: the half-maximal inhibitory concentration (IC50) in assay [1] is 0.0312 µM; in assay [2] it was 14.9 nM; in assay [3] it was 2540 nM. For the same compound, the “ICW EC30” value in assay [4] was found to be 1337 nM.
In the same order, the values of `CNCCN(C)Cc1c[nH]nc1-c1cc(F)c(Cl)c(C(F)(F)F)c1` [Compound 27] are 0.037 µM, 6.75 nM, 21.4 nM and 377 nM.
The like results for `CNCCN(C)Cc1c[nH]nc1-c1ccc(OCCOc2ccc(OC)cc2)cc1` [Compound 135] were, in that order, 0.0336 µM, 5.85 nM, 4.05 nM and 86 nM.

For orientation: IC50 means the midpoint of a concentration-inhibition curve.

(Values after patent US20190077795A1, “ARGININE […] INHIBITORS AND USES THEREOF” (Epizyme, Inc., priority 2014, published 2019).)
